{"source": "patent US20240409585A1", "about": "“MACROCYCLIC IMMUNOMODULATORS” (priority 2021, published 2024)", "note": "Numbered stars: 1 amine (or outer) side, 2 acyl side, 3 side chain; on linkers, the order of the positions; unused ones are H or OH. Bridge positions count the residues as written; N and C are the ends. Square brackets hold non-standard residues; d marks the D form. Peptide text beside a SMILES is read from it. * marks the point of attachment. Bip(4'-COOH) = N[C@@H](Cc1ccc(-c2ccc(C(=O)O)cc2)cc1)C(=O)O; Bip(4'-NHAc) = CC(=O)Nc1ccc(-c2ccc(C[C@H](N)C(=O)O)cc2)cc1; Phe(3-CF3) = N[C@@H](Cc1cccc(C(F)(F)F)c1)C(=O)O; Ala(morpholin-4-yl) = N[C@@H](CN1CCOCC1)C(=O)O; Phe(4-CONH2) = NC(=O)c1ccc(C[C@H](N)C(=O)O)cc1; Phe(4-COOH) = N[C@@H](Cc1ccc(C(=O)O)cc1)C(=O)O; Bip = N[C@@H](Cc1ccc(-c2ccccc2)cc1)C(=O)O; Phe(3-NH2) = Nc1cccc(C[C@H](N)C(=O)O)c1; Phe(3-Me) = Cc1cccc(C[C@H](N)C(=O)O)c1; Abu(3S-NH2) = C[C@H](N)[C@H](N)C(=O)O; Propanoyl(3,3,3-F3) = O=C(CC(F)(F)F)*; hPhe = N[C@@H](CCc1ccccc1)C(=O)O; Cha = N[C@@H](CC1CCCCC1)C(=O)O; Suc = O=C(CCC(=O)[*:2])[*:1]; Carboxymethyl = O=C(O)C*; NMeA = CN[C@@H](C)C(=O)O; Orn = NCCC[C@H](N)C(=O)O; Dab = NCC[C@H](N)C(=O)O; Dap = NC[C@H](N)C(=O)O"}
{"biological_target": "T1, Alexa fluor-647 labeled human PD-L1-Ig binding to Jurkat cell line over-expressing human PD-1 (Homo sapiens, UniProt Q15116)", "T1 construct": "expressed in transfected cells; host or cells: Jurkat", "T1 sequence (Q15116 25-288)": "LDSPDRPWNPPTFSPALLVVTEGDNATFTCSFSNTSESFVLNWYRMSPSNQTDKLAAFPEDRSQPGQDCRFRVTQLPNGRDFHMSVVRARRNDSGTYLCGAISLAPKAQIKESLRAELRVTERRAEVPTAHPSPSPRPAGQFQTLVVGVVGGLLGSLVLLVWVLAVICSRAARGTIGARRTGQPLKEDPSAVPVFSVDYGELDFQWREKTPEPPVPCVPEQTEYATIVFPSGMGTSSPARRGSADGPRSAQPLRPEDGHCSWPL", "assay": "Jurkat-PD-1 Cell Binding High-Content Screening Assay (CBA): Method 3 (Alexa fluor-647 labeled PD-L1-Ig)", "details": "Jurkat-PD-1 cells, Alexa fluor-647 labeled PD-L1-Ig 177 nM; head μM; read-out: CBA Method 3 μM", "how_it_was_run": "(§1)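 Jurkat cells over-expressing human PD-1 in RPMI/10% FCS were preincubated 2 h at 37 °C with compound, then exposed 1 h to Alexa fluor-647 labeled human PD-L1-Ig (177 nM final). Cells fixed in 4% paraformaldehyde with Hoechst 33342 and binding quantified by high-content imaging.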", "units": {"IC50": "µM"}}
{"compound": "CC(=O)Nc1ccc(-c2ccc(C[C@@H]3NC(=O)[C@H](Cc4cccc(C)c4)NC(=O)[C@H](CC(=O)O)NC(=O)[C@H](Cc4ccc(-c5ccc(C(=O)O)cc5)cc4)NC(=O)[C@H](CN4CCOCC4)NC(=O)CSC[C@@H](C(=O)N[C@@H](CCN)C(N)=O)NC(=O)[C@H](CCC(=O)O)NC(=O)[C@H](C(C)C)NC(=O)[C@H](CC4CCCCC4)NC(=O)[C@H](CC(N)=O)NC(=O)[C@@H](CC(C)C)NC(=O)[C@H](C)N(C)C(=O)[C@H](Cc4ccc(OCC(=O)O)cc4)NC(=O)[C@H](Cc4ccc(-c5ccccc5)cc4)NC3=O)cc2)cc1", "note": "[Example 5127] ({CH2CO}-[Ala(morpholin-4-yl)][Bip(4'-COOH)]D[Phe(3-Me)][Bip(4'-NHAc)][Bip]Y(Carboxymethyl)[NMeA][dL]N[Cha]VEC[Dab]-NH2; thioether N-14)", "IC50": 0.02}
{"compound": "Cc1cccc(C[C@@H]2NC(=O)[C@H](CC(=O)O)NC(=O)[C@H](Cc3ccc(C(=O)O)cc3)NC(=O)[C@H]([C@H](C)N)NC(=O)CSC[C@@H](C(=O)N[C@@H](CCN)C(N)=O)NC(=O)[C@H](CCC(N)=O)NC(=O)[C@H](C(C)C)NC(=O)[C@H](CC3CCCCC3)NC(=O)[C@H](CCN)NC(=O)[C@@H](CC(C)C)NC(=O)[C@H](C)N(C)C(=O)[C@H](Cc3ccc(C(N)=O)cc3)NC(=O)[C@H](Cc3ccc(-c4ccccc4)cc3)NC(=O)[C@H](Cc3ccc(OCC(=O)O)cc3)NC2=O)c1", "note": "[Example 5119] ({CH2CO}-[Abu(3S-NH2)][Phe(4-COOH)]D[Phe(3-Me)]Y(Carboxymethyl)[Bip][Phe(4-CONH2)][NMeA][dL][Dab][Cha]VQC[Dab]-NH2; thioether N-14)", "IC50": 0.02}
{"compound": "Cc1cccc(C[C@@H]2NC(=O)[C@H](CC(=O)O)NC(=O)[C@H](Cc3ccc(OCC(=O)O)cc3)NC(=O)[C@H](CC3CCCCC3)NC(=O)CSC[C@@H](C(=O)N[C@@H](CCN)C(N)=O)NC(=O)[C@H](CCCN)NC(=O)[C@H](C(C)C)NC(=O)[C@H](Cc3cccc(N)c3)NC(=O)[C@H](CCN)NC(=O)[C@@H](CC(C)C)NC(=O)[C@H](C)N(C)C(=O)[C@H](CCC(N)=O)NC(=O)[C@H](Cc3ccc(-c4ccccc4)cc3)NC(=O)[C@H](Cc3ccc(C(=O)O)cc3)NC2=O)c1", "note": "[Example 5190] ({CH2CO}-[Cha]Y(Carboxymethyl)D[Phe(3-Me)][Phe(4-COOH)][Bip]Q[NMeA][dL][Dab][Phe(3-NH2)]V[Orn]C[Dab]-NH2; thioether N-14)", "IC50": 0.02}
{"compound": "Cc1cccc(C[C@@H]2NC(=O)[C@H](CC(=O)O)NC(=O)[C@H](Cc3ccc(C(=O)O)cc3)NC(=O)[C@H](CN3CCOCC3)NC(=O)CSC[C@@H](C(=O)N[C@@H](CCN)C(N)=O)NC(=O)[C@H](CCC(N)=O)NC(=O)[C@H](C(C)C)NC(=O)[C@H](CC3CCCCC3)NC(=O)[C@H](CCN)NC(=O)[C@@H](CC(C)C)NC(=O)[C@H](C)N(C)C(=O)[C@H](Cc3ccc(C(=O)O)cc3)NC(=O)[C@H](Cc3ccc(-c4ccccc4)cc3)NC(=O)[C@H](Cc3ccc(C(=O)O)cc3)NC2=O)c1", "note": "[Example 5260] ({CH2CO}-[Ala(morpholin-4-yl)][Phe(4-COOH)]D[Phe(3-Me)][Phe(4-COOH)][Bip][Phe(4-COOH)][NMeA][dL][Dab][Cha]VQC[Dab]-NH2; thioether N-14)", "IC50": 0.09}
{"compound": "Cc1cccc(C[C@@H]2NC(=O)[C@H](CC(=O)O)NC(=O)[C@H](Cc3ccc(OCC(=O)O)cc3)NC(=O)[C@H](CC3CCCCC3)NC(=O)CSC[C@@H](C(=O)N[C@@H](CCN)C(N)=O)NC(=O)[C@H](CCCN)NC(=O)[C@H](C(C)C)NC(=O)[C@H](CCN)NC(=O)[C@H](CCN)NC(=O)[C@@H](CC(C)C)NC(=O)[C@H](C)N(C)C(=O)[C@H](CCC(N)=O)NC(=O)[C@H](Cc3ccc(-c4ccccc4)cc3)NC(=O)[C@H](Cc3ccc(C(=O)O)cc3)NC2=O)c1", "note": "[Example 5205] ({CH2CO}-[Cha]Y(Carboxymethyl)D[Phe(3-Me)][Phe(4-COOH)][Bip]Q[NMeA][dL][Dab][Dab]V[Orn]C[Dab]-NH2; thioether N-14)", "IC50": 0.16}
{"compound": "CC(C)C[C@H]1NC(=O)[C@H](C)N(C)C(=O)[C@H](Cc2ccc(C(=O)O)cc2)NC(=O)[C@H](Cc2ccc(-c3ccccc3)cc2)NC(=O)[C@H](CCc2ccccc2)NC(=O)[C@H](Cc2cccc(C(F)(F)F)c2)NC(=O)[C@H](CC(=O)O)NC(=O)[C@H](Cc2ccc(C(=O)O)cc2)NC(=O)[C@H](CN2CCOCC2)NC(=O)CSC[C@@H](C(=O)N[C@@H](CCN)C(N)=O)NC(=O)[C@H](CNC(=O)CC(F)(F)F)NC(=O)[C@H](C(C)C)NC(=O)[C@H](CC2CCCCC2)NC(=O)[C@H](CCN)NC1=O", "note": "[Example 5207] ({CH2CO}-[Ala(morpholin-4-yl)][Phe(4-COOH)]D[Phe(3-CF3)][hPhe][Bip][Phe(4-COOH)][NMeA][dL][Dab][Cha]V[Dap](Propanoyl(3,3,3-F3))C[Dab]-NH2; thioether N-14)", "IC50": 0.03}
{"compound": "Cc1cccc(C[C@@H]2NC(=O)[C@H](CC(=O)O)NC(=O)[C@H](Cc3ccc(OCC(=O)O)cc3)NC(=O)[C@H](CC3CCCCC3)NC(=O)CSC[C@@H](C(=O)N[C@@H](CCN)C(N)=O)NC(=O)[C@H](CCCN)NC(=O)[C@H](C(C)C)NC(=O)[C@H](CC3CCCCC3)NC(=O)[C@H](CCN)NC(=O)[C@@H](CC(C)C)NC(=O)[C@H](C)N(C)C(=O)[C@H](CCC(N)=O)NC(=O)[C@H](Cc3ccc(-c4ccccc4)cc3)NC(=O)[C@H](CCc3ccccc3)NC2=O)c1", "note": "[Example 5218] ({CH2CO}-[Cha]Y(Carboxymethyl)D[Phe(3-Me)][hPhe][Bip]Q[NMeA][dL][Dab][Cha]V[Orn]C[Dab]-NH2; thioether N-14)", "IC50": 0.02}
{"compound": "CC(C)C[C@H]1NC(=O)[C@H](C)N(C)C(=O)[C@H](Cc2ccc(C(=O)O)cc2)NC(=O)[C@H](Cc2ccc(-c3ccccc3)cc2)NC(=O)[C@H](CCc2ccccc2)NC(=O)[C@H](Cc2cccc(C(F)(F)F)c2)NC(=O)[C@H](CC(=O)N[C@@H](CC(=O)O)C(=O)O)NC(=O)[C@H](Cc2ccc(C(=O)O)cc2)NC(=O)[C@H](CN2CCOCC2)NC(=O)CSC[C@@H](C(=O)N[C@@H](CCN)C(N)=O)NC(=O)[C@H](CCC(N)=O)NC(=O)[C@H](C(C)C)NC(=O)[C@H](CC2CCCCC2)NC(=O)[C@H](CCN)NC1=O", "note": "[Example 5281] ({CH2CO}-[Ala(morpholin-4-yl)][Phe(4-COOH)]D(Asp)[Phe(3-CF3)][hPhe][Bip][Phe(4-COOH)][NMeA][dL][Dab][Cha]VQC[Dab]-NH2; thioether N-14)", "IC50": 0.16}
{"biological_target": "T1, Alexa fluor-647 labeled human PD-L1-Ig binding to Jurkat cell line over-expressing human PD-1", "assay": "Jurkat-PD-1 Cell Binding High-Content Screening Assay (CBA): Method 3 (Alexa fluor-647 labeled PD-L1-Ig)", "details": "Jurkat-PD-1 cells, Alexa fluor-647 labeled PD-L1-Ig 177 nM; nM; read-out: CBA Method 3", "how_it_was_run": "as §1", "units": {"IC50": "µM"}}
{"compound": "Cc1cccc(C[C@@H]2NC(=O)[C@H](CC(=O)O)NC(=O)[C@H](Cc3ccc(OCC(=O)O)cc3)NC(=O)[C@H](Cc3ccc(OCC(=O)O)cc3)NC(=O)CSC[C@@H](C(=O)N[C@@H](CCN)C(N)=O)NC(=O)[C@H](CCCN)NC(=O)[C@H](C(C)C)NC(=O)[C@H](CC3CCCCC3)NC(=O)[C@H](CCN)NC(=O)[C@@H](CC(C)C)NC(=O)[C@H](C)N(C)C(=O)[C@H](CCC(N)=O)NC(=O)[C@H](Cc3ccc(-c4ccccc4)cc3)NC(=O)[C@H](Cc3ccc(C(=O)O)cc3)NC2=O)c1", "note": "[Example 5168] ({CH2CO}-Y(Carboxymethyl)Y(Carboxymethyl)D[Phe(3-Me)][Phe(4-COOH)][Bip]Q[NMeA][dL][Dab][Cha]V[Orn]C[Dab]-NH2; thioether N-14)", "IC50": 0.0014}
{"compound": "CC(C)C[C@H]1NC(=O)[C@H](C)N(C)C(=O)[C@H](Cc2ccc(C(=O)O)cc2)NC(=O)[C@H](Cc2ccc(-c3ccccc3)cc2)NC(=O)[C@H](Cc2ccc(C(=O)O)cc2)NC(=O)[C@H](Cc2cccc(C(F)(F)F)c2)NC(=O)[C@H](CC(=O)O)NC(=O)[C@H](Cc2ccc(C(=O)O)cc2)NC(=O)[C@H](CN2CCOCC2)NC(=O)CSC[C@@H](C(=O)N[C@@H](CCN)C(N)=O)NC(=O)[C@H](CNC(=O)CCC(=O)O)NC(=O)[C@H](C(C)C)NC(=O)[C@H](CC2CCCCC2)NC(=O)[C@H](CCN)NC1=O", "note": "[Example 5142] ({CH2CO}-[Ala(morpholin-4-yl)][Phe(4-COOH)]D[Phe(3-CF3)][Phe(4-COOH)][Bip][Phe(4-COOH)][NMeA][dL][Dab][Cha]V[Dap](Suc)C[Dab]-NH2; thioether N-14)", "IC50": 0.0033}
{"compound": "Cc1cccc(C[C@@H]2NC(=O)[C@H](CC(=O)O)NC(=O)[C@H](Cc3ccc(-c4ccc(C(=O)O)cc4)cc3)NC(=O)[C@H](CN3CCOCC3)NC(=O)CSC[C@@H](C(=O)N[C@@H](CCN)C(N)=O)NC(=O)[C@H](CCC(=O)O)NC(=O)[C@H](C(C)C)NC(=O)[C@H](CC(C)C)NC(=O)[C@H](CC(N)=O)NC(=O)[C@@H](CC(C)C)NC(=O)[C@H](C)N(C)C(=O)[C@H](C(C)C)NC(=O)[C@H](Cc3ccc(-c4ccccc4)cc3)NC(=O)[C@H](CC(C)C)NC2=O)c1", "note": "[Example 5125] ({CH2CO}-[Ala(morpholin-4-yl)][Bip(4'-COOH)]D[Phe(3-Me)]L[Bip]V[NMeA][dL]NLVEC[Dab]-NH2; thioether N-14)", "IC50": 0.0094}
{"compound": "CC(C)C[C@H]1NC(=O)[C@H](C)N(C)C(=O)[C@H](CCC(N)=O)NC(=O)[C@H](Cc2ccc(-c3ccccc3)cc2)NC(=O)[C@H](Cc2ccc(-c3ccc(C(=O)O)cc3)cc2)NC(=O)[C@H](Cc2cccc(C(F)(F)F)c2)NC(=O)[C@H](CC(=O)O)NC(=O)[C@H](Cc2ccc(C(=O)O)cc2)NC(=O)[C@H](Cc2ccc(OCC(=O)O)cc2)NC(=O)CSC[C@@H](C(=O)N[C@@H](CCN)C(N)=O)NC(=O)[C@H](CCCN)NC(=O)[C@H](C(C)C)NC(=O)[C@H](CC2CCCCC2)NC(=O)[C@H](CCN)NC1=O", "note": "[Example 5167] ({CH2CO}-Y(Carboxymethyl)[Phe(4-COOH)]D[Phe(3-CF3)][Bip(4'-COOH)][Bip]Q[NMeA][dL][Dab][Cha]V[Orn]C[Dab]-NH2; thioether N-14)", "IC50": 0.0003}
